Measurements from paper PMC5956890 (Journal of medicinal chemistry, 2017).
Where a name gives a salt, the structure may show the parent alone.

Tests used:
PPARδ [1] = target: T1, PPARδ (Homo sapiens, UniProt Q03181); assay: TR-FRET PPARδ corepressor assay; type: biochemical; conditions: SMRT-ID2 peptide
T1 sequence (Q03181 211-439 limits assumed): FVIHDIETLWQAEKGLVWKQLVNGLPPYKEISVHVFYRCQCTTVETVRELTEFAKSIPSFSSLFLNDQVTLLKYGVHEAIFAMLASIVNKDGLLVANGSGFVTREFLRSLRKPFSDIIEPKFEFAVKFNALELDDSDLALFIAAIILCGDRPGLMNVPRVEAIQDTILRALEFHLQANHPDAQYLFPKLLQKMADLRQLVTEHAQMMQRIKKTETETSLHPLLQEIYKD

PPARγ = target: T2, PPARγ (Homo sapiens, UniProt P37231); assay: TR-FRET competitive binding assay PPARγ; conditions: concentration-response
T2 sequence (P37231 235-505 limits assumed): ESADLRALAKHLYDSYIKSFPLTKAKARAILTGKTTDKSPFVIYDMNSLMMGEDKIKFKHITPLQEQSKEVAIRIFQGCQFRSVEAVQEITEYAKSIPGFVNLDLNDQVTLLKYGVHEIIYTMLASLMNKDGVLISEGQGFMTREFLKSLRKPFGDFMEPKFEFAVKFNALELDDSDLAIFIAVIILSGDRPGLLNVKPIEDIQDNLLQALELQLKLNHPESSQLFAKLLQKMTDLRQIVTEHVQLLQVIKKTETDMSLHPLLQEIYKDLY

[2] = tested on: STZ-induced diabetic C57BL/6J mice; assay: STZ-induced diabetes mouse model; type: in vivo; conditions: oral 20 mg/kg for 5 days, male C57BL/6J
PPARα = target: T3, PPARα (Homo sapiens, UniProt Q07869); assay: TR-FRET competitive binding assay PPARα; conditions: up to 20 µM
T3 sequence (Q07869 200-468 limits assumed): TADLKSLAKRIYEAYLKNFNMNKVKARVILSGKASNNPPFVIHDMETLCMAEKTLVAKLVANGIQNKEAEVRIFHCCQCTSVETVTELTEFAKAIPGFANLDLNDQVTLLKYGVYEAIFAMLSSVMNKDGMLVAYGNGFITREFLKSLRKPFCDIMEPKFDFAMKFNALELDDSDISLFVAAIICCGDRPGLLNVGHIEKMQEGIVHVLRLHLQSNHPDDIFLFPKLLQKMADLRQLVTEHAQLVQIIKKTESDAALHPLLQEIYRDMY

PPARδ [3] = target: T1, PPARδ; assay: TR-FRET PPARδ coactivator assay; type: biochemical; conditions: compound alone
PPARδ [4] = target: T4, PPARδ (Homo sapiens, UniProt Q03181); assay: TR-FRET competitive binding assay PPARδ; conditions: concentration-response
T4 sequence (Q03181 1-441): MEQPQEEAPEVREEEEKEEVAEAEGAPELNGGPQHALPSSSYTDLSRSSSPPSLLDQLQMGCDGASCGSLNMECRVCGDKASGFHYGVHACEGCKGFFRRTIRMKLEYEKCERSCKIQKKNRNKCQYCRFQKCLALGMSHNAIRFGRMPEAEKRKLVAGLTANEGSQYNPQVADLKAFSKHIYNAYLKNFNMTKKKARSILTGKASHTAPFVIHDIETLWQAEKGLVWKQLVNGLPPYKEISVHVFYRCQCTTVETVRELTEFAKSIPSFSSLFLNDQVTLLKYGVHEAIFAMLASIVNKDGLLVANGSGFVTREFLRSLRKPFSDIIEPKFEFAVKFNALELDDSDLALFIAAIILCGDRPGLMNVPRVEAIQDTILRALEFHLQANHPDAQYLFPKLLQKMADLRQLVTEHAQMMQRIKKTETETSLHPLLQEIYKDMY

[5] = tested on: human AR-transfected murine osteoblast precursor cell line 7F2; conditions: cited from earlier work
hBM-MSCs [6] = assay: adiponectin production during adipogenesis in hBM-MSCs; conditions: for adiponectin production during adipogenesis: compared to IDX control; for adipogenesis in hBM-MSCs: compared to control
[7] = tested on: ANGPTL4 and PDK4 gene transcription; assay: Q-RT-PCR of ANGPTL4 and PDK4 mRNA in hBM-MSCs; type: cell-based, human; conditions: 3rd day after induction of adipogenesis
hBM-MSCs [8] = assay: Oil Red O staining of lipid droplets in hBM-MSCs; type: cell-based, human; conditions: compared with IDX control, 7th day

Which “interaction between PPARδ and corepressor peptide” value (PPARδ [1]) does the source give for CNC(=O)[C@H]1S[C@@H](n2cnc3c(NCc4cccc(I)c4)ncnc32)[C@H](O)[C@@H]1O [Compound 1c] here?
Its value is “enhanced the interaction of PPARδ with the corepressor peptide”.

What about the “PPARγ binding activity” value (PPARγ) of the same molecule?
The value was “very weak binding activity”.

And the “serum glucose levels” value [2]?
The value was “significantly decreased serum glucose levels”.

What about the “serum triglyceride levels” value [2] of the same molecule?
The value was “downregulated serum triglyceride levels”.

And the “replacement of labeled PPARα ligand binding” value (PPARα)?
The value was at most 50%.

What about the “recruitment of labeled coactivator peptide to PPARδ” value (PPARδ [3]) of the same molecule?
Its value is “no effect on the recruitment of the labeled coactivator peptide”.

With CNC(=O)[C@H]1S[C@@H](n2cnc3c(NCc4cccc(I)c4)nc(Cl)nc32)[C@H](O)[C@@H]1O [Compound 1d] as the molecule, how does the “PPARδ binding activity” value (PPARδ [4]) read?
Its value is “most potent inhibitor among A3 AR agonists”.

For OC[C@H]1O[C@@H](n2cnc3c(NC4CCCC4)nc(Cl)nc32)[C@H](O)[C@@H]1O [Compound 14, 2-chloro-N^6-cyclopentyladenosine], which “increase of adipocyte differentiation” value [5] is on record?
The value was 20–30%.

And the “adiponectin production during adipogenesis” value (hBM-MSCs [6])?
The value was “no significant effect”.

And the “adipogenesis in hBM-MSCs” value (hBM-MSCs [6])?
Its value is “did not significantly promote adipogenesis”.

With CCNC(=O)[C@H]1O[C@@H](n2cnc3c(N)ncnc32)[C@H](O)[C@@H]1O [Compound 15, 5′-(N-ethylcarboxamido) adenosine] as the molecule, how does the “increase of adipocyte differentiation” value [5] read?
Its value is 20–30%.

What about the “adiponectin production during adipogenesis” value (hBM-MSCs [6]) of the same molecule?
Its value is “no significant effect”.

What about the “adipogenesis in hBM-MSCs” value (hBM-MSCs [6]) of the same molecule?
The value was “did not significantly promote adipogenesis”.

For CCNC(=O)[C@H]1O[C@@H](n2cnc3c(N)nc(NCCc4ccc(CCC(=O)O)cc4)nc32)[C@H](O)[C@@H]1O [Compound 16, 2-p-(2-carboxyethyl)phenethylamino-5′-N-ethylcarboxamidoadenosine hydrochloride hydrate], which “adiponectin production during adipogenesis” value (hBM-MSCs [6]) is on record?
The value was “no significant effect”.

Which “adipogenesis in hBM-MSCs” value (hBM-MSCs [6]) does the source give for CNC(=O)[C@@]12C[C@@H]1[C@@H](n1cnc3c(NCc4cccc(Cl)c4)nc(C#Cc4ccc(F)c(F)c4)nc31)[C@H](O)[C@@H]2O [Compound 17, (1S,2R,3S,4R,5S)-4-[6-[[(3-chlorophenyl)methyl]-amino]-2-[2-(3,4-difluorophenyl)ethynyl]-9H-purin-9-yl]-2,3-dihydroxy-N-methylbicyclo[3.1.0]hexane-1-carboxamide] here?
Its value is “no effect on adipogenesis”.

With CCCn1cc2c(nc(NC(=O)Nc3ccc(OC)cc3)n3nc(-c4ccco4)nc23)n1 [Compound 18, N-[2-(2-furanyl)-8-propyl-8H-pyrazolo[4,3-e][1,2,4]triazolo[1,5-c]pyrimidin-5-yl]-N′-(4-methoxyphenyl)-urea] as the molecule, how does the “adipogenesis in hBM-MSCs” value (hBM-MSCs [6]) read?
The value was “no effect on adipogenesis”.

What does the source list for Cc1cc(SCc2sc(-c3ccc(C(F)(F)F)cc3)nc2C)ccc1OCC(=O)O [Compound 22, 2-[2-methyl-4-[[[4-methyl-2-[4-(trifluoromethyl)phenyl]-5-thiazolyl]methyl]thio]phenoxy]acetic acid]?
ANGPTL4 mRNA level [7]: significantly increased ANGPTL4 and PDK4 gene transcription; PDK4 mRNA level [7]: significantly increased ANGPTL4 and PDK4 gene transcription

Which “ANGPTL4 mRNA level” value [7] does the source give for COC(=O)c1sccc1S(=O)(=O)Nc1ccc(Nc2ccccc2)cc1OC [Compound 23, 3-[[[2-methoxy-4-(phenylamino)phenyl]-amino]sulfonyl]-2-thiophenecarboxylic acid methyl ester] here?
Its value is “did not affect ANGPTL4 and PDK4 mRNA levels”.

What about the “PDK4 mRNA level” value [7] of the same molecule?
The value was “did not affect ANGPTL4 and PDK4 mRNA levels”.

With O=C(NCCS(=O)(=O)c1ccc(C(F)(F)F)cn1)c1ccc(Cl)cc1 [Compound 24, 4-chloro-N-[2-[[5-(trifluoromethyl)-2-pyridinyl]sulfonyl]ethyl]benzamide] as the molecule, how does the “interaction between PPARδ and corepressor peptide” value (PPARδ [1]) read?
Its value is “significantly promoted the recruitment of the corepressor peptide”.

What about the “ANGPTL4 mRNA level” value [7] of the same molecule?
The value was “did not affect ANGPTL4 and PDK4 mRNA levels”.

And the “PDK4 mRNA level” value [7]?
The value was “did not affect ANGPTL4 and PDK4 mRNA levels”.

For Nc1ncnc2c1ncn2[C@@H]1O[C@H](CO)[C@@H](O)[C@H]1O [adenosine], which “adiponectin production during adipogenesis” value (hBM-MSCs [6]) is on record?
Its value is “no significant effect”.

Which “lipid droplets in differentiated adipocytes (ORO staining)” value (hBM-MSCs [8]) does the source give for Cn1c(=O)c2c(ncn2C)n(C)c1=O [caffeine] here?
The value was “decreased them”.

And the “adipogenesis in hMSCs” value (hBM-MSCs [6]; 1 mM)?
Its value is “inhibited adipogenesis”.

For COc1ccc(Cl)cc1C(=O)NCCc1ccc(S(=O)(=O)NC(=O)NC2CCCCC2)cc1 [glibenclamide], which “PPARγ binding activity” value (PPARγ) is on record?
The value was “showed PPARγ binding activity”.
